This data set is described as follows: in vivo. Details: species or system SD rats. Particulars: male, SD, rat, plasma; for AUC: read-out: Area Under Curve AUC; for clearance: read-out: Clearance Rate Cl; for C0: read-out: Initial Concentration C0; for Vd: read-out: Volume of Distribution Vd; for bioavailability: read-out: Bioavailability F; for Cmax: read-out: Peak Concentration Cmax.
[1] abbreviates: iv, 0.2 mg/kg, read-out: Half-life T1/2 (converted).
Where [2] appears, read: po, 1 mg/kg, read-out: Peak Concentration Time T1/2 (converted).

Read-outs that look alike come from different tables or passages of the source.

The AUC is the area under the concentration-time curve, a measure of exposure. The term clearance denotes the volume of plasma or blood freed of the substance per unit of time. One may read the Vd as a proportionality between amount in the body and measured concentration, not a real space. With `Cc1ccc(F)c([C@H](C)NC2=CC(=O)C3(CCCC3)C(=O)N2)c1` [Compound 9], under “iv, 0.2 mg/kg”, the AUC was determined as 2.11 µM·h, the clearance came to 4.78 mL/min/kg, the C0 is 4820 nM and the Vd is 1.73 L/kg. The half-life under setting [1] is 5.93 h. In addition, where the note is “po, 1 mg/kg”, the AUC amounted to 8.11 µM·h, the bioavailability turned out to be 76.7% and the Cmax came to 1940 nM. Also, the half-life under setting [2] is 7.35 h.

Take `C[C@H](NC1=CC(=O)C2(CCCC2)C(=O)N1)c1cc(F)ccc1F` [Compound 10]: where the note is “intravenous, 0.2 mg/kg”, the exposure (AUC) was determined as 1.29 µM·h, the clearance turned out to be 6 mL/min/kg, the C0 was determined as 1460 nM and the volume of distribution (Vd) stood at 2.7 L/kg. Moreover, the half-life (intravenous, 0.2 mg/kg, read-out: Half-life T1/2 (converted)) was 6.37 h. Moreover, where the note is “po, 1 mg/kg”, the AUC is 7.93 µM·h and the Cmax worked out at 1310 nM. Further, under setting [2], the half-life is 4.83 h.

For the molecule `C[C@H](NC1=CC(=O)C2(CCCC2)C(=O)N1)c1cccc(Cl)c1` [Compound 7], for the setting “iv, 0.2 mg/kg”, the exposure (AUC) was 3.53 µM·h, the clearance turned out to be 2.93 mL/min/kg, the C0 was determined as 3700 nM and the Vd was 0.885 L/kg. The half-life under setting [1] was 3.86 h. In addition, for the setting “po, 1 mg/kg”, the AUC came to 14.8 µM·h, the bioavailability came out at 88.1% and the Cmax is 2140 nM. Moreover, the half-life under setting [2] is 5.96 h.

Consider `C[C@H](NC1=CC(=O)C2(CCCC2)C(=O)N1)c1ccccc1` [Compound 3], for which, for the setting “iv, 0.2 mg/kg”, the AUC was 1.33 µM·h, the clearance turned out to be 8.11 mL/min/kg, the C0 was found to be 773 nM and the Vd is 1.6 L/kg. In addition, the half-life under setting [1] was 2.31 h. Under “po, 1 mg/kg”, the AUC stood at 7.32 µM·h, the bioavailability is 110% and the Cmax turned out to be 1380 nM. Further, the half-life under setting [2] is 4.81 h.
